From article PMC7054748, “The identification and characterisation of autophagy inhibitors from the published kinase inhibitor sets” (Biochemical Journal, 2020)
Several values for one entry are separate records, joined by “and”; a condition that tells them apart may be missing. Identical values can stand only once. Like-named read-outs stand apart in the source and are kept apart here.

Assays:
ULK1 = molecular target: T1, ULK1 (Homo sapiens, UniProt O75385); experiment: ULK1 ADP Hunter Plus kinase activity assay; assay type: biochemical
T1 construct: purchased MRC PPU Reagents and Services, Dundee, Scotland
T1 sequence (O75385 1-1050): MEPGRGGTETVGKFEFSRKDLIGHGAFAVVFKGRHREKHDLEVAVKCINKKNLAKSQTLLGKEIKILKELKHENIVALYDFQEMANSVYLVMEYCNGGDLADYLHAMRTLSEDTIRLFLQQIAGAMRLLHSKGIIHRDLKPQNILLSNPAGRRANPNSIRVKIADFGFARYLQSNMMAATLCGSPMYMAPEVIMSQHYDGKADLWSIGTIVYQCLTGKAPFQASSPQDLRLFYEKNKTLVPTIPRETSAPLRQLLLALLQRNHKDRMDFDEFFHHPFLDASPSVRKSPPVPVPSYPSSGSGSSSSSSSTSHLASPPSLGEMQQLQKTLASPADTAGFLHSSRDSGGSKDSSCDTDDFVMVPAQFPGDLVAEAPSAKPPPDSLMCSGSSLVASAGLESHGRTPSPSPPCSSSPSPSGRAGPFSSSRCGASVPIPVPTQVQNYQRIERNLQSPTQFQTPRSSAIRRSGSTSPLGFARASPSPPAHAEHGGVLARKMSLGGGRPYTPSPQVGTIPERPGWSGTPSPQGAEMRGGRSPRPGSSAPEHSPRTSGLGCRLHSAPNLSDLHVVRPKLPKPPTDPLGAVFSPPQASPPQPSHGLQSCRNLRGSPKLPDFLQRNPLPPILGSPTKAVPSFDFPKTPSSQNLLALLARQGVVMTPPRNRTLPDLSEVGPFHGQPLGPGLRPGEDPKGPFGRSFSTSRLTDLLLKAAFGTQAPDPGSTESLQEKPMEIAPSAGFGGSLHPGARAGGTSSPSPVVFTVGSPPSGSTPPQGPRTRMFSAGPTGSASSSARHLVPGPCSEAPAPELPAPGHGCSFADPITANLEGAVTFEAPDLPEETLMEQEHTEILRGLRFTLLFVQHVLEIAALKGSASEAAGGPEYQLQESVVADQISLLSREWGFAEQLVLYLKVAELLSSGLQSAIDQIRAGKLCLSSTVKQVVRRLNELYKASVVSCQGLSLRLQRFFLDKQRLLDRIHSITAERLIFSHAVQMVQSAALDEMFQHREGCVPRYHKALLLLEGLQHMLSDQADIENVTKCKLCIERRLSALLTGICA

ULK1 (pS318 ATG13) = experiment: Cellular ULK1 kinase activity: pS318 ATG13 western blot in U2OS cells; assay type: cell-based, human; conditions: for Effect on starvation-induced increase in pS318 ATG13: 5 µM, 60 min pre-treatment then 60 min EBSS, U2OS; for Cellular ULK1 inhibition compared with GW837331X and GW406108X: 2 µM MRT68921, 5 µM SBI0206965, 120 min EBSS, U2OS western blot (Supplementary Figure S6C)
Description: (§1) U2OS (human osteosarcoma-derived) cells were cultured in DMEM supplemented with 10% foetal bovine serum, 100 U/ml Penicillin and […] L-glutamine. Cells were pre-treated with compounds at the indicated concentrations for 60 min followed by treatments with EBSS or EBSS combined with/without 50 nM Bafilomycin A1 (Enzo Life Sciences) for a further 60 or 120 min with/without inhibitors, as indicated in figures/figure legends.
(§2) Lysates were then spun at 20 000×g for 10 min and the supernatant was collected for protein content estimation using Protein Assay Dye Reagent Concentrate from Bio-Rad. 4× LDS was added to the lysate (final dilution 1×) prior to heating at 95°C for 5 min. Electrophoresis and transfer to PVDF membranes was performed using standard protocols. Membranes were blocked in 5% milk in TBS-T prior to incubation with primary antibodies (in 5% milk/TBS-T for ULK1, pS555 (human S556) ULK1, pS757 (human S758) ULK1, pS318-ATG13, ATG13, and in 5% BSA/TBS-T for LC3 and α-Tubulin) under rotation overnight at 4°C followed by washes in TBS-T and incubation with HRP-conjugated secondary antibodies (in 5% milk in TBS-T) for 60 min at room temperature. Membranes were washed in TBS-T before application of ECL reagent (GE healthcare) and development on hypersensitive X-ray films (GE healthcare) (Figures 5A, 6C and Supplementary Figure S7C) or using BIO-RAD Clarity^TM western blotting substrate (Supplementary Figure S6C and Supplementary Figure S7A) and a BIO-RAD ChemiDoc^TM imaging system.
(§3) Quantification of western blots was performed with band densitometry analysis using ImageJ. Quantification of LC3 puncta was performed using either the ITCN plugging in ImageJ or Volocity. One-way or two-way Anova (using GraphPad Prism) followed by a post-hoc test, was used for statistical analysis of western blots and immunofluorescence as indicated in figure legends.

LC3 flux in U2OS cells = experiment: Autophagic flux: LC3-II western blot with/without BafA1 in U2OS cells; assay type: cell-based, human; conditions: for Effect on starvation-induced LC3 flux: 5 µM, 60 min pre-treatment then 60 min EBSS ± 50 nM BafA1, U2OS
Description: as §1
as §2, with “Prior to western blot analysis, cells were washed twice in ice-cold PBS and lysed in buffer containing 50 mM HEPES pH 7.4, 150 mM NaCl, 1 mM EDTA, 10% Glycerol, 0.5% NP-40, 1 mM DTT, supplemented with phosphatase inhibitors (1.15 mM sodium molybdate, 4 mM sodium tartrate, 0.01 M β-glycerophosphate, 1 mM sodium fluoride, 1 mM sodium orthovanadate) and protease inhibitor tablets (Roche) according to manufacturer's instructions. Lysates” for “Lysates”
as §3

LC3 puncta in U2OS cells = experiment: Endogenous LC3 puncta immunofluorescence in U2OS cells; assay type: cell-based, human; conditions: for Enlarged/stalled LC3 puncta (autophagosomes) phenotype: 2 µM MRT68921, 5 µM others, 60 min pre-treatment then 120 min EBSS; for Effect on EBSS-induced increase in LC3 puncta formation: 5 µM
Description: as §1
(§4) Prior to immunofluorescence, cells were grown on glass coverslips to ∼60% confluency. Cells were washed in PBS prior to fixation with 3.7% PFA/10 mM HEPES pH 7.0 at room temperature for 20 min. PFA was quenched using DMEM/10 mM HEPES pH 7.0/0.02% NaN3, followed by permeabilisation with 0.2% NP-40 in PBS for 5 min, followed by blocking with 1% BSA/PBS/0.02% NaN3. Primary antibody incubation was at room temperature for 60 min, followed by two 10-minute washes, then fluorescent secondary antibody incubation for 30 min and further washes (all in blocking buffer) before mounting onto glass slides. A wide field Nikon TS microscope was used for image capturing.
as §3

mTOR (ULK1 pS758) = experiment: Upstream mTOR activity: ULK1 pS758 western blot in U2OS cells; assay type: cell-based, human; conditions: for Effect on mTORC1 activity (pS758 ULK1): 100 nM (VPS34-IN1 500 nM), 60 min pre-treatment, ± EBSS 60 min
Description: as §1, §2, §3

AMPK (ULK1 pS556) = experiment: Upstream AMPK activity: ULK1 pS556 western blot in U2OS cells; assay type: cell-based, human; conditions: for Effect on AMPK activity (pS556 ULK1): 100 nM (VPS34-IN1 500 nM), 60 min pre-treatment, ± EBSS 60 min
Description: as §1, §2, §3

[1] = tested on: kinases (human kinome panel); parameters: method as in ChEMBL database; conditions: value = the kinase inhibited over 50%; ref ChEMBL database; cited from earlier work
AMPK α1β2ɣ1 = AMPK α1β2ɣ1 (Homo sapiens, UniProt O43741+P54619+Q13131); experiment: AMPK ADP Hunter Plus kinase activity assay
Chain of AMPK α1β2ɣ1 (Q13131 whole entry): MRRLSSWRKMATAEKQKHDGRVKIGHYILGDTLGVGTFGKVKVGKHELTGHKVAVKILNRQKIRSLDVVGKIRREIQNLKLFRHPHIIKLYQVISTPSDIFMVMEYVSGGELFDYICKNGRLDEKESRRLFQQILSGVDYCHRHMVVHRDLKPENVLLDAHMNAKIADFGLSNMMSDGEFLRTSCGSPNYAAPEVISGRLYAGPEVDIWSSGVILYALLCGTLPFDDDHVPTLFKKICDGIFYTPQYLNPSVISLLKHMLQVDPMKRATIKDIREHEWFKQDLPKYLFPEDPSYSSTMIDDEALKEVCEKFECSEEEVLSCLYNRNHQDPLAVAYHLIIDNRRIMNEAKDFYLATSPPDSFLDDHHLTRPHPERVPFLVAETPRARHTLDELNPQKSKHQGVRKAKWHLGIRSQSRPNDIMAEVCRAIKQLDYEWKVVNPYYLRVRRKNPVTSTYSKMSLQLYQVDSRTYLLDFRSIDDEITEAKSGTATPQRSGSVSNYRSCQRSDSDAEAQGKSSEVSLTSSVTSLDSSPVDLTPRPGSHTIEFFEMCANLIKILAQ
Chain of AMPK α1β2ɣ1 (O43741 whole entry partner): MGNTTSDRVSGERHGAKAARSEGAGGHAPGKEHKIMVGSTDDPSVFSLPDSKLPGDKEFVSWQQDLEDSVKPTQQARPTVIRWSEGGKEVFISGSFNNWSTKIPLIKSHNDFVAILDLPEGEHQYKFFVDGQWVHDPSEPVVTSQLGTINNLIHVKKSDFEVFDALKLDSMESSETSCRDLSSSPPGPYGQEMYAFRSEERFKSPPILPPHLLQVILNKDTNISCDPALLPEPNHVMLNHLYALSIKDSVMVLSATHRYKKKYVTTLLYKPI
Chain of AMPK α1β2ɣ1 (P54619 whole entry partner): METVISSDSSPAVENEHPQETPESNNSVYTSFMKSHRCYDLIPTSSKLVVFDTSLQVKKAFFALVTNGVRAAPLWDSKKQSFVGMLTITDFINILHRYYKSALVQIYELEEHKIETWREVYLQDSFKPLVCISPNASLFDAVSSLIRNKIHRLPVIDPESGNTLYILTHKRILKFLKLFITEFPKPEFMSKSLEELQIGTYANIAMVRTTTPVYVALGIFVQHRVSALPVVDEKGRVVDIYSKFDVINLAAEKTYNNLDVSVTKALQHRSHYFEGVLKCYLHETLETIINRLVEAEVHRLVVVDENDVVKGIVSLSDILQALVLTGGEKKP

VPS34 = VPS34 (Homo sapiens, UniProt Q8NEB9); experiment: VPS34 ADP Hunter Plus kinase activity assay; conditions: for Mechanism of inhibition of VPS34 with respect to ATP: varying ATP below 200 µM, Michaelis–Menten and Lineweaver–Burk plots; for Mechanism of inhibition of VPS34 with respect to PI:PS: varying PI:PS below 12 µM
Chain of VPS34 (Q8NEB9 whole entry): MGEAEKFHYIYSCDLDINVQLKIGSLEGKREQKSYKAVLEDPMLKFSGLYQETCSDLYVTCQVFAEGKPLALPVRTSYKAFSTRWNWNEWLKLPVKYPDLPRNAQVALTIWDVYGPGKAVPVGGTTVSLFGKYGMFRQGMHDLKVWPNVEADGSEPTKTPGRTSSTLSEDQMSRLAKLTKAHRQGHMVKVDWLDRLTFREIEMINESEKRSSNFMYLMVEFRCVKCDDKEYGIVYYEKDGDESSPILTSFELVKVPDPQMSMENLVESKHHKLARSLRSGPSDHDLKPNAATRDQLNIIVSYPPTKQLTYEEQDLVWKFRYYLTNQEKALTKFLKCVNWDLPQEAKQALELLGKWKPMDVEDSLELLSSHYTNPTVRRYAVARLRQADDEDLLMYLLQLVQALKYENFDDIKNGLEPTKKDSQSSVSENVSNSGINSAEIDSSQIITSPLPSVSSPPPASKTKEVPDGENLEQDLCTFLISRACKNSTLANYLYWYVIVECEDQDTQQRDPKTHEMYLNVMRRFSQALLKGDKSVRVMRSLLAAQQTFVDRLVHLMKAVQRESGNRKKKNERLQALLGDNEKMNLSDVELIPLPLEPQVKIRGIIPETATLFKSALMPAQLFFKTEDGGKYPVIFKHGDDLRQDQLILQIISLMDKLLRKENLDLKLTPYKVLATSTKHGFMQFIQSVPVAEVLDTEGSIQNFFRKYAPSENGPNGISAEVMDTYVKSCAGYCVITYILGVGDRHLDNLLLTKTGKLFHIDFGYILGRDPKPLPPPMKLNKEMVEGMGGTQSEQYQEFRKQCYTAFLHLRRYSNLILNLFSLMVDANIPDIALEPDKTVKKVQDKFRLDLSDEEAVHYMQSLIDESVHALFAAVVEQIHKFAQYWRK

VPS34 (WIPI2 puncta) = experiment: Cellular VPS34 activity: WIPI2 puncta immunofluorescence in U2OS cells; assay type: cell-based, human
Description: as §1, §4, §3

[2] = resynthesized samples, mean potency in parenthesis, n = 5, read-out: IC50 against ULK1 (converted)
[3] = IC50 against VPS34, resynthesized samples, mean potency in parenthesis, n = 5
[4] = pIC50 against VPS34, original PKIS samples, concentration-dependent retest of screen hits

COc1cc(Nc2ncc3c(C)nc(-c4cccc(C(F)(F)F)c4)n3n2)cc(OC)c1OC [GW837331X]
IC50 (ULK1; original PKIS samples, concentration-dependent retest of screen hits, read-out: pIC50 against ULK1 (converted)): < 1 µM | IC50 (ULK1; [2]): 0.646 µM | Mechanism of inhibition of ULK1 with respect to ATP (ULK1; varying ATP below 600 µM, Michaelis–Menten and Lineweaver–Burk plots): primarily ATP competitive inhibition | Mechanism of inhibition of ULK1 with respect to MBP (ULK1; varying MBP substrate): clear non-competitive inhibition | Effect on starvation-induced increase in pS318 ATG13 (ULK1 (pS318 ATG13)): significantly reduced | Effect on starvation-induced LC3 flux (LC3 flux in U2OS cells): significantly blocked | Enlarged/stalled LC3 puncta (autophagosomes) phenotype (LC3 puncta in U2OS cells): did not show this phenotype | Effect on EBSS-induced increase in LC3 puncta formation (LC3 puncta in U2OS cells): abolished | Effect on mTOR activity (ULK1 pS758 levels) (mTOR (ULK1 pS758); 5 µM): without affecting mTOR or AMPK activity | Effect on AMPK activity (ULK1 pS556 levels) (AMPK (ULK1 pS556); 5 µM): without affecting mTOR or AMPK activity | Kinases that are inhibited over 50% (descending order) [1]: NEK9 and PLK1 and FMS and SRC and MELK and EphB2 and EphA4 | IC50 (AMPK α1β2ɣ1): 2.34 µM | IC50 (VPS34; [3]): > 100 µM

CN1CCc2cc(Nc3ncc(C4CC4)c(NCCCNC(=O)C4CCC4)n3)ccc2C1 [MRT68921, reference compound]
Cellular ULK1 inhibition compared with GW837331X and GW406108X (ULK1 (pS318 ATG13)): inhibited ULK1 more potently | Enlarged/stalled LC3 puncta (autophagosomes) phenotype (LC3 puncta in U2OS cells): larger than those formed with EBSS alone

O=C1Nc2ccc(-c3cccnc3)cc2C1=Cc1cc(Br)c(O)c(Br)c1 [GW429374A]
IC50 (ULK1; [2]): 8.71 µM | Effect on LC3 flux under EBSS starvation (LC3 flux in U2OS cells; 100 nM, 60 min pre-treatment then 60 min EBSS, U2OS): significantly reduced LC3 flux | Effect on EBSS-induced WIPI2 puncta (VPS34 (WIPI2 puncta); 100 nM, 60 min pre-treatment then 60 min EBSS, vs EBSS only): significantly reduced | Concentration working in cells (WIPI2 puncta reduction) (VPS34 (WIPI2 puncta); EBSS, as low as): ≤ 100 nM | Effect on mTORC1 activity (pS758 ULK1) (mTOR (ULK1 pS758)): unaffected | Effect on AMPK activity (pS556 ULK1) (AMPK (ULK1 pS556)): unaffected | IC50 (AMPK α1β2ɣ1): 3.16 µM | IC50 (VPS34; [3]): 0.0905 µM and 0.091 µM | IC50 (VPS34; [4]): < 1 µM | Mechanism of inhibition of VPS34 with respect to ATP (VPS34): primarily ATP competitive inhibition | Mechanism of inhibition of VPS34 with respect to PI:PS (VPS34): clear non-competitive inhibition

CNC(=O)c1ccccc1Oc1nc(Nc2cc(OC)c(OC)c(OC)c2)ncc1Br [SBI0206965, reference compound]
Cellular ULK1 inhibition compared with GW837331X and GW406108X (ULK1 (pS318 ATG13)): inhibited ULK1 more potently | Enlarged/stalled LC3 puncta (autophagosomes) phenotype (LC3 puncta in U2OS cells): larger than those formed with EBSS alone

CC(C)(O)CNc1ncc(-c2ccnc(Nc3ccnc(Cl)c3)n2)c(CC2CC2)n1 [VPS34-IN1, reference compound]
Concentration blocking EBSS-induced autophagy (LC3) flux (LC3 flux in U2OS cells; U2OS, EBSS + 50 nM BafA1, as low as, greater effect at 100 nM): ≤ 10 nM | Effect on mTORC1 activity (pS758 ULK1) (mTOR (ULK1 pS758)): unaffected | Effect on AMPK activity (pS556 ULK1) (AMPK (ULK1 pS556)): unaffected

CC(C)(CO)CNC(=O)c1ccc2c(c1)/C(=N/Nc1ccc(S(N)(=O)=O)cc1)C(=O)N2 [GW301784X]
Effect on starvation-induced increase in pS318 ATG13 (ULK1 (pS318 ATG13)): did not have a significant effect | Effect on starvation-induced LC3 flux (LC3 flux in U2OS cells): did not block LC3 flux | IC50 (AMPK α1β2ɣ1): 0.347 µM | IC50 (VPS34; pIC50 against VPS34, resynthesized samples, 50 µM ATP (KM app), mean ± SD, n = 5): 26.3 µM

O=C1Nc2ccc(C(=O)c3ccco3)cc2C1=Cc1cc(Cl)c(O)c(Cl)c1 [GW406108X]
Effect on starvation-induced increase in pS318 ATG13 (ULK1 (pS318 ATG13)): significantly reduced | Effect on starvation-induced LC3 flux (LC3 flux in U2OS cells): significantly blocked | Enlarged/stalled LC3 puncta (autophagosomes) phenotype (LC3 puncta in U2OS cells): did not show this phenotype | Effect on EBSS-induced increase in LC3 puncta formation (LC3 puncta in U2OS cells): abolished | IC50 (VPS34; [3]): 0.457 µM

O=S(=O)(c1ccc(-c2ccnc3[nH]ccc23)cc1)N1CCCC1 [GSK846226A]
IC50 (ULK1; [2]): 0.603 µM | Concentration with inhibitory effect on WIPI2 puncta formation (VPS34 (WIPI2 puncta); EBSS, not at lower concentrations): 5 µM | IC50 (AMPK α1β2ɣ1): 2.51 µM | IC50 (VPS34; IC50 against VPS34, resynthesized sample): 1.2 µM | IC50 (VPS34; [3]): 1.2 µM | IC50 (VPS34; [4]): < 1 µM | Mechanism of inhibition of VPS34 with respect to ATP (VPS34): primarily ATP competitive inhibition | Mechanism of inhibition of VPS34 with respect to PI:PS (VPS34): clear non-competitive inhibition
